# Reference: article PMC7758046, “Novel piperazine–chalcone hybrids and related pyrazoline analogues targeting VEGFR-2 kinase; design, synthesis, molecular docking studies, and anticancer evaluation” (Journal of Enzyme Inhibition and Medicinal Chemistry, 2020)
# How the values were obtained:
# Assay in all cases: NCI-60 single-dose anticancer screen
# Assay type in all cases: cell-based, human
# A498 (Renal cancer) = conditions: 10 µM single dose
# Procedure: (§1) Six compounds were selected by the NCI, according to NCI’s DTP selection guidelines, for evaluation of their anticancer activity at a single-dose of 10 µM against 60 human tumours cell lines.
# (§2) In vitro cytotoxicity was performed in NCI according to reported method.
# [1] = test system: A549/ATCC (Non-small cell lung cancer); conditions: 10 µM single dose
# Procedure: as §1, §2
# ACHN (Renal cancer) = conditions: 10 µM single dose
# Procedure: as §1, §2
# CAKI-1 (Renal cancer) = conditions: 10 µM single dose
# Procedure: as §1, §2
# CCRF-CEM (Leukaemia) = conditions: 10 µM single dose; for inhibition at 10 µM: Homo sapiens, read-out: cell growth inhibition
# Procedure: as §1, §2
# COLO 205 (Colon cancer) = conditions: 10 µM single dose
# Procedure: as §1, §2
# [2] = test system: EKVX (Non-small cell lung cancer); conditions: 10 µM single dose
# Procedure: as §1, §2
# HCC-2998 (Colon cancer) = conditions: 10 µM single dose
# Procedure: as §1, §2
# [3] = test system: HOP-62 (Non-small cell lung cancer); conditions: 10 µM single dose
# Procedure: as §1, §2
# HS 578T (Breast cancer) = conditions: 10 µM single dose
# Procedure: as §1, §2
# HT29 (Colon cancer) = conditions: for cell growth promotion: 10 µM single dose
# Procedure: as §1, §2
# K-562 (Leukaemia) = conditions: for cell growth promotion: 10 µM single dose; for inhibition at 10 µM: Homo sapiens, K562, 10 µM single dose, read-out: cell growth inhibition
# Procedure: as §1, §2
# KM12 (Colon cancer) = conditions: 10 µM single dose
# Procedure: as §1, §2
# M14 (Melanoma) = conditions: 10 µM single dose
# Procedure: as §1, §2
# MALME-3M (Melanoma) = conditions: 10 µM single dose
# Procedure: as §1, §2
# MCF7 (Breast cancer) = conditions: 10 µM single dose; for inhibition at 10 µM: Homo sapiens, read-out: cell growth inhibition
# Procedure: as §1, §2
# MDA-MB-435 (Melanoma) = conditions: 10 µM single dose
# Procedure: as §1, §2
# [4] = test system: MDA-MB-468 (Breast cancer); conditions: 10 µM single dose
# Procedure: as §1, §2
# MOLT-4 (Leukaemia) = conditions: 10 µM single dose
# Procedure: as §1, §2
# [5] = test system: NCI-H23 (Non-small cell lung cancer); conditions: 10 µM single dose
# Procedure: as §1, §2
# [6] = test system: NCI-H322M (Non-small cell lung cancer); conditions: 10 µM single dose
# Procedure: as §1, §2
# [7] = test system: NCI-H460 (Non-small cell lung cancer); conditions: 10 µM single dose
# Procedure: as §1, §2
# [8] = test system: NCI-H522 (Non-small cell lung cancer); conditions: 10 µM single dose
# Procedure: as §1, §2
# [9] = test system: NCI/ADR-RES (Ovarian cancer); conditions: 10 µM single dose
# Procedure: as §1, §2
# OVCAR-3 (Ovarian cancer) = conditions: 10 µM single dose
# Procedure: as §1, §2
# OVCAR-4 (Ovarian cancer) = conditions: 10 µM single dose
# Procedure: as §1, §2
# OVCAR-5 (Ovarian cancer) = conditions: 10 µM single dose
# Procedure: as §1, §2
# OVCAR-8 (Ovarian cancer) = conditions: 10 µM single dose
# Procedure: as §1, §2
# PC-3 (Prostate cancer) = conditions: 10 µM single dose
# Procedure: as §1, §2
# RPMI-8226 (Leukaemia) = conditions: 10 µM single dose
# Procedure: as §1, §2
# RXF 393 (Renal cancer) = conditions: 10 µM single dose
# Procedure: as §1, §2
# SF-268 (CNS cancer) = conditions: 10 µM single dose
# Procedure: as §1, §2
# SF-295 (CNS cancer) = conditions: 10 µM single dose
# Procedure: as §1, §2
# SF-539 (CNS cancer) = conditions: 10 µM single dose
# Procedure: as §1, §2
# SK-MEL-2 (Melanoma) = conditions: 10 µM single dose
# Procedure: as §1, §2
# SK-MEL-28 (Melanoma) = conditions: 10 µM single dose
# Procedure: as §1, §2
# SK-MEL-5 (Melanoma) = conditions: 10 µM single dose
# Procedure: as §1, §2
# SN12C (Renal cancer) = conditions: 10 µM single dose
# Procedure: as §1, §2
# SNB-19 (CNS cancer) = conditions: 10 µM single dose
# Procedure: as §1, §2
# SNB-75 (CNS cancer) = conditions: 10 µM single dose
# Procedure: as §1, §2
# SR (Leukaemia) = conditions: 10 µM single dose; for inhibition at 10 µM: Homo sapiens, read-out: cell growth inhibition
# Procedure: as §1, §2
# SW-620 (Colon cancer) = conditions: 10 µM single dose
# Procedure: as §1, §2
# TK-10 (Renal cancer) = conditions: 10 µM single dose
# Procedure: as §1, §2
# U251 (CNS cancer) = conditions: 10 µM single dose
# Procedure: as §1, §2
# UACC-257 (Melanoma) = conditions: 10 µM single dose
# Procedure: as §1, §2
# UACC-62 (Melanoma) = conditions: 10 µM single dose
# Procedure: as §1, §2
# UO-31 (Renal cancer) = conditions: 10 µM single dose
# Procedure: as §1, §2
smiles,measurement,setting,value
"COc1cc(C=CC(=O)c2ccc(N3CCNCC3)cc2)ccc1F [Ve, 3-(4-Fluoro-3-methoxyphenyl)-1-(4-(piperazin-1-yl)phenyl) prop-2-en-1-one]",cell growth promotion,A498 (Renal cancer),100.79%
same,cell growth promotion,[1],67.25%
same,cell growth promotion,ACHN (Renal cancer),68.11%
same,cell growth promotion,CAKI-1 (Renal cancer),79.37%
same,cell growth promotion,CCRF-CEM (Leukaemia),22.15%
same,inhibition at 10 µM,CCRF-CEM (Leukaemia),77.8%
same,cell growth promotion,COLO 205 (Colon cancer),83.00%
same,cell growth promotion,[2],97.12%
same,cell growth promotion,HCC-2998 (Colon cancer),100.21%
same,cell growth promotion,[3],101.42%
same,cell growth promotion,HS 578T (Breast cancer),91.26%
same,cell growth promotion,HT29 (Colon cancer),49.97%
same,cell growth promotion,K-562 (Leukaemia),12.37%
same,inhibition at 10 µM,K-562 (Leukaemia),87.6%
same,cell growth promotion,KM12 (Colon cancer),60.47%
same,cell growth promotion,M14 (Melanoma),78.43%
same,cell growth promotion,MALME-3M (Melanoma),112.40%
same,cell growth promotion,MCF7 (Breast cancer),34.68%
same,inhibition at 10 µM,MCF7 (Breast cancer),65.3%
same,cell growth promotion,MDA-MB-435 (Melanoma),80.14%
same,cell growth promotion,[4],46.48%
same,cell growth promotion,MOLT-4 (Leukaemia),80.75%
same,cell growth promotion,[5],92.63%
same,cell growth promotion,[6],73.01%
same,cell growth promotion,[7],97.07%
same,cell growth promotion,[8],61.19%
same,cell growth promotion,[9],79.31%
same,cell growth promotion,OVCAR-3 (Ovarian cancer),70.18%
same,cell growth promotion,OVCAR-4 (Ovarian cancer),68.87%
same,cell growth promotion,OVCAR-5 (Ovarian cancer),121.73%
same,cell growth promotion,OVCAR-8 (Ovarian cancer),57.23%
same,cell growth promotion,PC-3 (Prostate cancer),51.40%
same,cell growth promotion,RPMI-8226 (Leukaemia),49.59%
same,cell growth promotion,RXF 393 (Renal cancer),101.92%
same,cell growth promotion,SF-268 (CNS cancer),94.03%
same,cell growth promotion,SF-295 (CNS cancer),95.92%
same,cell growth promotion,SF-539 (CNS cancer),95.87%
same,cell growth promotion,SK-MEL-2 (Melanoma),85.44%
same,cell growth promotion,SK-MEL-28 (Melanoma),106.02%
same,cell growth promotion,SK-MEL-5 (Melanoma),79.33%
same,cell growth promotion,SN12C (Renal cancer),57.67%
same,cell growth promotion,SNB-19 (CNS cancer),59.87%
same,cell growth promotion,SNB-75 (CNS cancer),89.05%
same,cell growth promotion,SR (Leukaemia),46.22%
same,inhibition at 10 µM,SR (Leukaemia),53.8%
same,cell growth promotion,SW-620 (Colon cancer),50.69%
same,cell growth promotion,TK-10 (Renal cancer),101.24%
same,cell growth promotion,U251 (CNS cancer),67.21%
same,cell growth promotion,UACC-257 (Melanoma),76.08%
same,cell growth promotion,UACC-62 (Melanoma),80.13%
same,cell growth promotion,UO-31 (Renal cancer),58.35%
"O=C(C=Cc1ccncc1F)c1ccc(N2CCNCC2)cc1 [Vf, 3-(3-Fluoropyridin-4-yl)-1-(4-(piperazin-1-yl)phenyl)prop-2-en-1-one]",cell growth promotion,A498 (Renal cancer),97.22%
same,cell growth promotion,[1],78.75%
same,cell growth promotion,ACHN (Renal cancer),113.06%
same,cell growth promotion,CAKI-1 (Renal cancer),86.18%
same,cell growth promotion,CCRF-CEM (Leukaemia),78.16%
same,inhibition at 10 µM,CCRF-CEM (Leukaemia),21.8%
same,cell growth promotion,COLO 205 (Colon cancer),111.89%
same,cell growth promotion,[2],99.11%
same,cell growth promotion,HCC-2998 (Colon cancer),100.88%
same,cell growth promotion,[3],102.01%
same,cell growth promotion,HS 578T (Breast cancer),99.19%
same,cell growth promotion,HT29 (Colon cancer),86.42%
same,inhibition at 10 µM,"HT29 (Colon cancer); Homo sapiens, HT-29, 10 µM single dose, read-out: cell growth inhibition",13.8%
same,cell growth promotion,K-562 (Leukaemia),85.84%
same,inhibition at 10 µM,K-562 (Leukaemia),14.2%
same,cell growth promotion,KM12 (Colon cancer),105.34%
same,cell growth promotion,M14 (Melanoma),95.53%
same,cell growth promotion,MALME-3M (Melanoma),99.98%
same,cell growth promotion,MCF7 (Breast cancer),99.38%
same,inhibition at 10 µM,MCF7 (Breast cancer),0.62%
same,cell growth promotion,MDA-MB-435 (Melanoma),102.37%
same,cell growth promotion,[4],100.32%
same,cell growth promotion,MOLT-4 (Leukaemia),91.63%
same,cell growth promotion,[5],102.52%
same,cell growth promotion,[6],96.26%
same,cell growth promotion,[7],106.01%
same,cell growth promotion,[8],78.82%
same,cell growth promotion,[9],107.53%
same,cell growth promotion,OVCAR-3 (Ovarian cancer),106.22%
same,cell growth promotion,OVCAR-4 (Ovarian cancer),110.55%
same,cell growth promotion,OVCAR-5 (Ovarian cancer),111.84%
same,cell growth promotion,OVCAR-8 (Ovarian cancer),95.35%
same,cell growth promotion,PC-3 (Prostate cancer),73.56%
same,cell growth promotion,RPMI-8226 (Leukaemia),97.33%
same,cell growth promotion,RXF 393 (Renal cancer),97.78%
same,cell growth promotion,SF-268 (CNS cancer),100.92%
same,cell growth promotion,SF-295 (CNS cancer),101.95%
same,cell growth promotion,SF-539 (CNS cancer),101.29%
same,cell growth promotion,SK-MEL-2 (Melanoma),91.63%
same,cell growth promotion,SK-MEL-28 (Melanoma),115.56%
same,cell growth promotion,SK-MEL-5 (Melanoma),101.11%
same,cell growth promotion,SN12C (Renal cancer),99.00%
same,cell growth promotion,SNB-19 (CNS cancer),96.07%
same,cell growth promotion,SNB-75 (CNS cancer),89.08%
same,cell growth promotion,SR (Leukaemia),92.99%
same,inhibition at 10 µM,SR (Leukaemia),7.01%
same,cell growth promotion,SW-620 (Colon cancer),105.59%
same,cell growth promotion,TK-10 (Renal cancer),95.83%
same,cell growth promotion,U251 (CNS cancer),95.03%
same,cell growth promotion,UACC-257 (Melanoma),70.86%
same,cell growth promotion,UACC-62 (Melanoma),92.01%
same,cell growth promotion,UO-31 (Renal cancer),89.78%
